Oligonucleotides are written 5' to 3', each unit as a sugar letter and its base; * is a phosphorothioate linkage, no mark a phosphodiester; rarer units and linkages stand in square brackets, end groups in braces. Plain capitals give the bases only. e = 2'-O-(2-methoxyethyl) (MOE); [5mC] = 5-methylcytosine; d = 2'-deoxy (DNA)

The first data set has as its system mouse apolipoprotein B mRNA. Nature of the data set: Inhibition of mouse apolipoprotein B mRNA levels in primary hepatocytes, quantitative real-time PCR. To be noted: 50 nM. In kind it is cell-based. Also noted: %INHIB of mouse apolipoprotein B mRNA levels: concentration or dose not given beside the values. As for the experimental part: Primary mouse hepatocytes were prepared from CD-1 mice purchased from Charles River Labs (Wilmington, Mass.) and were routinely cultured in Hepatoyte Attachment Media (Gibco) supplemented with 10% Fetal Bovine Serum (Gibco/Life Technologies, Gaithersburg, Md.), 250 nM dexamethasone (Sigma), and 10 nM bovine insulin (Sigma). Cells were seeded into 96-well plates (Falcon-Primaria #3872) at a density of 10000 cells/well for use in RT-PCR analysis.
When cells reached 80% confluency, they were treated with oligonucleotide. For cells grown in 96-well plates, wells were washed once with 200 μL OPTI-MEM™-1 reduced-serum medium (Gibco BRL) and then treated with 130 μL of OPTI-MEM™-1 containing 3.75 μg/mL LIPOFECTIN™ (Gibco BRL) and the desired concentration of oligonucleotide. After 4-7 hours of treatment, the medium was replaced with fresh medium. Cells were harvested 16-24 hours after oligonucleotide treatment.
Quantitation of apolipoprotein B mRNA levels was determined by real-time quantitative PCR using the ABI PRISM™ 7700 Sequence Detection System (PE-Applied Biosystems, Foster City, Calif.) according to manufacturer's instructions. This is a closed-tube, non-gel-based, fluorescence detection system which allows high-throughput quantitation of polymerase chain reaction (PCR) products in real-time. As opposed to standard PCR, in which amplification products are quantitated after the PCR is completed, products in real-time quantitative PCR are quantitated as they accumulate. This is accomplished by including in the PCR reaction an oligonucleotide probe that anneals specifically between the forward and reverse PCR primers, and contains two fluorescent dyes. A reporter dye (e.g., JOE, FAM, or VIC, obtained from either Operon Technologies Inc., Alameda, Calif. or PE-Applied Biosystems, Foster City, Calif.) is attached to the 5′ end of the probe and a quencher dye (e.g., TAMRA, obtained from either Operon Technologies Inc., Alameda, Calif. or PE-Applied Biosystems, Foster City, Calif.) is attached to the 3′ end of the probe. When the probe and dyes are intact, reporter dye emission is quenched by the proximity of the 3′ quencher dye. During amplification, annealing of the probe to the target sequence creates a substrate that can be cleaved by the 5′-exonuclease activity of Taq polymerase. […] With each cycle, additional reporter dye molecules are cleaved from their respective probes, and the fluorescence intensity is monitored at regular intervals by laser optics built into the ABI PRISM™ 7700 Sequence Detection System. In each assay, a series of parallel reactions containing serial dilutions of mRNA from untreated control samples generates a standard curve that is used to quantitate the percent inhibition after antisense oligonucleotide treatment of test samples.
PCR reagents were obtained from PE-Applied Biosystems, Foster City, Calif. RT-PCR reactions were carried out by adding 25 μL PCR cocktail (1× TAQMAN™ buffer A, 5.5 mM MgCl2, 300 μM each of DATP, dCTP and dGTP, 600 μM of dUTP, 100 nM each of forward primer, reverse primer, and probe, 20 Units RNAse inhibitor, 1.25 Units AMPLITAQ GOLD™, and 12.5 Units MuLV reverse transcriptase) to 96 well plates containing 25 μL total RNA solution. The RT reaction was carried out by incubation for 30 minutes at 48° C. Following a 10 minute incubation at 95° C. to activate the AMPLITAQ GOLD™, 40 cycles of a two-step PCR protocol were carried out: 95° C. for 15 seconds (denaturation) followed by 60° C. for 1.5 minutes (annealing/extension).
Gene target quantities obtained by real time RT-PCR are normalized using either the expression level of GAPDH, a gene whose expression is constant, or by quantifying total RNA using RiboGreen™ (Molecular Probes, Inc. Eugene, Oreg.). GAPDH expression is quantified by real time RT-PCR, by being run simultaneously with the target, multiplexing, or separately. Total RNA is quantified using RiboGreen™ RNA quantification reagent from Molecular Probes. […]
As for “147483 (antisense eA*eT*eG*eT*e[5mC]*dA*dA*dT*dG*d[5mC]*d[5mC]*dA*d[5mC]*dA*dT*eG*eT*e[5mC]*e[5mC]*eA) [compound 147483]”, the “Percent Inhibition of mouse apolipoprotein B mRNA levels” value (shortened to “Percent Inhibition”) worked out at 56%.

Still in this data set, the particulars now being: 150 nM.
Regarding “147483 (antisense eA*eT*eG*eT*e[5mC]*dA*dA*dT*dG*d[5mC]*d[5mC]*dA*d[5mC]*dA*dT*eG*eT*e[5mC]*e[5mC]*eA) [compound 147483]”, the “Percent Inhibition” value is on record as 88%.

The same data set, now with this note: 300 nM.
In the case of “147483 (antisense eA*eT*eG*eT*e[5mC]*dA*dA*dT*dG*d[5mC]*d[5mC]*dA*d[5mC]*dA*dT*eG*eT*e[5mC]*e[5mC]*eA) [compound 147483]”, the “Percent Inhibition” value came out at 89%.

The same data set, now with this note: averages from two experiments.
Regarding “147475 (antisense eA*eT*eT*eG*eT*dA*dT*dG*dT*dG*dA*dG*dA*dG*dG*eT*eG*eA*eG*eG) [compound 147475]”, the “%INHIB of mouse apolipoprotein B mRNA levels” value (“%INHIB” below) was found to be 79%.
As for “147476 (antisense eG*eA*eG*eG*eA*dG*dA*dT*dT*dG*dG*dA*dT*d[5mC]*dT*eT*eA*eA*eG*eG) [compound 147476]”, the “%INHIB” value was 13%.
Same read-out and setting: then “147478 (antisense eT*e[5mC]*e[5mC]*eA*eG*dG*dA*dA*dT*dT*dG*dA*dG*d[5mC]*dT*eT*eG*eT*eG*e[5mC]) [compound 147478]”, with 78%; and “147480 (antisense eT*e[5mC]*eT*e[5mC]*eA*d[5mC]*d[5mC]*d[5mC]*dT*d[5mC]*dA*dT*dG*d[5mC]*dT*e[5mC]*e[5mC]*eA*eT*eT) [compound 147480]”, with 54%.
Still for that read-out and setting: then “147481 (antisense eT*eG*eA*e[5mC]*eT*dG*dT*d[5mC]*dA*dA*dG*dG*dG*dT*dG*eA*eG*e[5mC]*eT*eG) [compound 147481]”, with 24%; and “147482 (antisense eG*eT*e[5mC]*e[5mC]*eA*dG*d[5mC]*d[5mC]*dT*dA*dG*dG*dA*dA*d[5mC]*eA*e[5mC]*eT*e[5mC]*eA) [compound 147482]”, with 59%.
As for “147484 (antisense eT*eT*e[5mC]*eA*eT*d[5mC]*d[5mC]*dG*dA*dG*dA*dA*dG*dT*dT*eG*eG*eG*eA*e[5mC]) [compound 147484]”, the “%INHIB” value stood at 49%.
As for “147485 (antisense eA*eT*eT*eT*eG*dG*dG*dA*d[5mC]*dG*dA*dA*dT*dG*dT*eA*eT*eG*e[5mC]*e[5mC]) [compound 147485]”, the “%INHIB” value was 64%.
Regarding “147487 (antisense eT*eT*e[5mC]*e[5mC]*e[5mC]*dA*dG*dT*d[5mC]*dA*dG*d[5mC]*dT*dT*dT*eA*eG*eT*eG*eG) [compound 147487]”, the “%INHIB” value was found to be 73%.
Still for that read-out and setting: as for “147488 (antisense eA*eG*e[5mC]*eT*eT*dG*d[5mC]*dT*dT*dG*dT*dT*dG*dG*dG*e[5mC]*eA*e[5mC]*eG*eG) [compound 147488]”, the figure is 72%; as for “147489 (antisense e[5mC]*e[5mC]*eT*eA*eT*dA*d[5mC]*dT*dG*dG*d[5mC]*dT*dT*d[5mC]*dT*eA*eT*eG*eT*eT) [compound 147489]”, 5%.
Same read-out and setting: as for “147493 (antisense eG*e[5mC]*eT*eT*e[5mC]*dA*dT*dT*dA*dT*dA*dG*dG*dA*dG*eG*eT*eG*eG*eT) [compound 147493]”, the figure is 41%; as for “147494 (antisense eA*e[5mC]*eA*eA*e[5mC]*dT*dG*dG*dG*dA*dT*dA*dG*dT*dG*eT*eA*eG*e[5mC]*e[5mC]) [compound 147494]”, 84%.
Same read-out and setting: as for “147495 (antisense eG*eT*eT*eA*eG*dG*dA*d[5mC]*d[5mC]*dA*dG*dG*dG*dA*dT*eT*eG*eT*eG*eA) [compound 147495]”, the figure is 0%; as for “147496 (antisense eA*e[5mC]*e[5mC]*eA*eT*dG*dG*dA*dA*dA*dA*d[5mC]*dT*dG*dG*e[5mC]*eA*eA*e[5mC]*eT) [compound 147496]”, 19%.
“147498 (antisense eT*eG*eG*eG*e[5mC]*dA*dA*d[5mC]*dG*dA*dT*dA*dT*d[5mC]*dT*eG*eA*eT*eT*eG) [compound 147498]”: the “%INHIB” value came out at 0%.
